Measured values: the CheMixHub ionic liquid set
± gives the uncertainty stated by the source.

Assay: xn = mol fraction of the nth substance listed

CC[C@H](C)[C@H](N)C(=O)O + CC[n+]1ccn(C)c1.O=S(=O)([O-])O + O
viscosity [mPa·s], 100 kPa
Conditions | x1 = 0.0003801, x2 = 0 | x1 = 0.0007797, x2 = 0 | x1 = 0.00113, x2 = 0 | x1 = 0.001526, x2 = 0 | x1 = 0.001761, x2 = 0 | x1 = 0.002228, x2 = 0 | x1 = 0.002748, x2 = 0
293.15 K | 1.024 ± 0.033 | 1.046 ± 0.033 | 1.066 ± 0.033 | 1.088 ± 0.033 | 1.101 ± 0.033 | 1.127 ± 0.033 | 1.156 ± 0.046
298.15 K | 0.902 ± 0.032 | 0.913 ± 0.032 | 0.923 ± 0.032 | 0.934 ± 0.032 | 0.94 ± 0.031 | 0.953 ± 0.032 | 0.968 ± 0.041
303.15 K | 0.807 ± 0.031 | 0.817 ± 0.031 | 0.826 ± 0.031 | 0.836 ± 0.031 | 0.843 ± 0.031 | 0.855 ± 0.031 | 0.868 ± 0.032
308.15 K | 0.729 ± 0.031 | 0.739 ± 0.031 | 0.748 ± 0.031 | 0.757 ± 0.031 | 0.763 ± 0.031 | 0.775 ± 0.031 | 0.787 ± 0.031
313.15 K | 0.661 ± 0.031 | 0.671 ± 0.031 | 0.679 ± 0.031 | 0.688 ± 0.031 | 0.693 ± 0.031 | 0.704 ± 0.031 | 0.716 ± 0.031

CCn1cc[n+](C)c1.[Cl][Al-]([Cl])([Cl])[Cl+][Al-]([Cl])([Cl])[Cl] + CC[n+]1ccn(C)c1.[Cl][Al-]([Cl])([Cl])[Cl]
100 kPa, x1 = 1
Conditions | viscosity [mPa·s]
313.15 K | 9.79 ± 0.088
323.15 K | 7.943 ± 0.072
343.15 K | 5.526 ± 0.05
353.15 K | 4.721 ± 0.043

COC(=O)OC + CC[n+]1ccn(C)c1C.O=S(=O)([N-]S(=O)(=O)C(F)(F)F)C(F)(F)F
101.3 kPa, x2 = 0
Conditions | viscosity [mPa·s]
288.15 K | 0.668 ± 0.015
293.15 K | 0.628 ± 0.014
298.15 K | 0.588 ± 0.013
303.15 K | 0.553 ± 0.012
308.15 K | 0.524 ± 0.011
313.15 K | 0.498 ± 0.011

CC[n+]1ccn(C)c1.[Cl][Al-]([Cl])([Cl])[Cl] + CCn1cc[n+](C)c1.[Cl][Al-]([Cl])([Cl])[Cl+][Al-]([Cl])([Cl])[Cl]
100 kPa
Conditions | viscosity [mPa·s]
293.15 K, x2 = 0.2046 | 19.38 ± 0.18
303.15 K, x2 = 0 | 15.69 ± 0.14
303.15 K, x2 = 0.3035 | 14.44 ± 0.13
303.15 K, x2 = 0.5041 | 13.77 ± 0.12
303.15 K, x2 = 0.6955 | 13.21 ± 0.12
323.15 K, x2 = 0.4003 | 9.033 ± 0.082
323.15 K, x2 = 0.5962 | 8.65 ± 0.078
323.15 K, x2 = 0.6955 | 8.468 ± 0.076
323.15 K, x2 = 0.7963 | 8.286 ± 0.075
333.15 K, x2 = 0.1016 | 8.016 ± 0.072
333.15 K, x2 = 0.2046 | 7.821 ± 0.071
333.15 K, x2 = 0.8901 | 6.726 ± 0.061
343.15 K, x2 = 0.5962 | 6.037 ± 0.055
343.15 K, x2 = 0.6955 | 5.906 ± 0.053
353.15 K, x2 = 0.1016 | 5.806 ± 0.052

CCCCCCCCn1cc[n+](C)c1.N#C[S-] + CN1CCCC1=O
viscosity [mPa·s], 101 kPa
Conditions | x1 = 0.0008419 | x1 = 0.001327 | x1 = 0.002048 | x1 = 0.002709 | x1 = 0.003576 | x1 = 0.004058 | x1 = 0.004657 | x1 = 0.005393
288.15 K | 2.152 ± 0.023 | 2.16 ± 0.023 | 2.177 ± 0.023 | 2.191 ± 0.024 | 2.199 ± 0.024 | 2.204 ± 0.024 | 2.213 ± 0.024 | 2.229 ± 0.024
298.15 K | 1.809 ± 0.02 | 1.817 ± 0.02 | 1.827 ± 0.02 | 1.834 ± 0.021 | 1.846 ± 0.021 | 1.857 ± 0.021 | 1.865 ± 0.021 | 1.872 ± 0.021
308.15 K | 1.572 ± 0.018 | 1.58 ± 0.018 | 1.591 ± 0.018 | 1.599 ± 0.018 | 1.61 ± 0.018 | 1.621 ± 0.018 | 1.631 ± 0.018 | 1.641 ± 0.018
318.15 K | 1.354 ± 0.017 | 1.37 ± 0.017 | 1.393 ± 0.016 | 1.407 ± 0.016 | 1.417 ± 0.016 | 1.434 ± 0.017 | 1.447 ± 0.017 | 1.458 ± 0.017

CCCCCCCCn1cc[n+](C)c1.[Cl-] + CN1CCCC1=O
100 kPa
Conditions | viscosity [mPa·s]
293.15 K, x2 = 0.3221 | 787 ± 74
298.15 K, x2 = 0.3221 | 541 ± 46
308.15 K, x2 = 0.7195 | 14.86 ± 0.63
308.15 K, x2 = 0.9085 | 3.35 ± 0.14
318.15 K, x2 = 0.21 | 324 ± 23
318.15 K, x2 = 0.5321 | 43.3 ± 1.8
318.15 K, x2 = 0.8143 | 5.54 ± 0.23
323.15 K, x2 = 0.21 | 244 ± 16
323.15 K, x2 = 0.8143 | 4.96 ± 0.21
328.15 K, x2 = 0.21 | 185 ± 11

CCCCCC[n+]1ccn(C)c1.N#C[S-] + CN1CCCC1=O
viscosity [mPa·s], 101 kPa
Conditions | x1 = 0.001079 | x1 = 0.001613 | x1 = 0.002068 | x1 = 0.00265 | x1 = 0.003379 | x1 = 0.004077 | x1 = 0.004588 | x1 = 0.005383
288.15 K | 2.143 ± 0.023 | 2.148 ± 0.023 | 2.155 ± 0.023 | 2.162 ± 0.023 | 2.168 ± 0.023 | 2.173 ± 0.023 | 2.182 ± 0.023 | 2.186 ± 0.023
298.15 K | 1.805 ± 0.02 | 1.809 ± 0.02 | 1.82 ± 0.02 | 1.826 ± 0.02 | 1.833 ± 0.02 | 1.841 ± 0.02 | 1.847 ± 0.02 | 1.854 ± 0.02
308.15 K | 1.567 ± 0.018 | 1.576 ± 0.018 | 1.585 ± 0.018 | 1.593 ± 0.018 | 1.6 ± 0.018 | 1.613 ± 0.018 | 1.619 ± 0.018 | 1.624 ± 0.018
318.15 K | 1.337 ± 0.017 | 1.35 ± 0.017 | 1.357 ± 0.017 | 1.37 ± 0.017 | 1.38 ± 0.017 | 1.389 ± 0.017 | 1.397 ± 0.017 | 1.402 ± 0.017
